Data reported in patent US8383608B2, “Imidazolidine compounds as androgen receptor modulators” (Dart Therapeutics LLC, priority 2008, dated 2013).
Read-outs that look alike come from different tables or passages of the source.

Experiments:
[1] = Determination of absolute bioavailability (restricted PK profile, oral and intravenous); format: in vivo; details: absolute bioavailability (F), male Sprague Dawley rats, oral 10 mg/kg AUC(0-6 h) vs intravenous 3 mg/kg AUC(0-3 h)
Method: To screen rapidly imidazolidines derivatives based on their absolute bioavailabity, restricted pharmacokinetic profile with only fours sampling time points after oral and intravenous route is investigated in Sprague Dawley rats as follows: each test compound is dosed orally (10 mg/kg) and intravenously (3 mg/kg) to groups of 3 male Sprague Dawley rats. Oral doses are administered as solution in EtOH/PEG400/H2O (1/79/20; v/v) by esophageal gavage (2 mg/mL; 5 mL/kg) and intravenous dose is given as solution in DMSO/PEG400/H2O (1/65/34; v/v) as a bolus in the tail vein (3 mg/mL; 1 mL/kg). Before oral dosing, animals are deprived of food (water ad libitum) for at least 16 hours before the start of the study and 6 hours after administration.
Blood is collected at the retro-orbital sinus into polypropylene tubes (Li-heparinate) at +4° C. at the following sampling-times: 0.083, 0.25, 1 and 3 h after intravenous injection and 0.25, 1, 3 and 6 hours after oral dosing. Three (3) animals are sampled per time-point; each animal being sampled four times. After centrifugation at 5000 rpm for 10 min at +4° C., plasma is collected into polypropylene tubes and kept frozen at −20° C. pending assays. Plasma samples are assayed by a LC-MS/MS method with a lower limit of quantification of 1 to 10 ng/mL depending on the compound (volume of plasma: 100 μL).
A LC-MS/MS method for quantification in heparinized plasma was developed for each test compound. Sample preparation consists of a precipitation of plasma proteins with methanol and filtration by centrifugation of supernatant on Captiva deep-well 96 0.2 μm filter plates. Water was added to methanol supernatant phase prior to analysis by liquid chromatography (Pursuit 5 C18 20×2.0 mm VARIAN, 2 μL loop, gradient Water/Methanol (90/10 to 0/100) over 1.7 min) with turboionspray tandem mass spectrometry (API4000) in negative mode using multiple reaction monitoring. The method includes 8 standard and 3 quality control levels with lower limit of quantification corresponding to first standard level.
Exposures are determined using a non compartmental model (WinNonLin 2.1) and the absolute bioavailability (F) is calculated as follows: [AUC(0-6 h) oral*3 mg/kg]/AUC(0-3 h) IV 10 mg/kg] and expressed in percentage.

[2] = target: T1, human androgen receptor (hAR) (Homo sapiens, UniProt P10275); assay: Functional response (transactivation) test in HALP2 cells (HeLa stably expressing hAR and ARE-luciferase reporter); format: cell-based; details: for Emax: HeLa, read-out: % effect relative to DHT (100%)
T1 construct: expressed in transfected cells
T1 sequence (P10275 1-920): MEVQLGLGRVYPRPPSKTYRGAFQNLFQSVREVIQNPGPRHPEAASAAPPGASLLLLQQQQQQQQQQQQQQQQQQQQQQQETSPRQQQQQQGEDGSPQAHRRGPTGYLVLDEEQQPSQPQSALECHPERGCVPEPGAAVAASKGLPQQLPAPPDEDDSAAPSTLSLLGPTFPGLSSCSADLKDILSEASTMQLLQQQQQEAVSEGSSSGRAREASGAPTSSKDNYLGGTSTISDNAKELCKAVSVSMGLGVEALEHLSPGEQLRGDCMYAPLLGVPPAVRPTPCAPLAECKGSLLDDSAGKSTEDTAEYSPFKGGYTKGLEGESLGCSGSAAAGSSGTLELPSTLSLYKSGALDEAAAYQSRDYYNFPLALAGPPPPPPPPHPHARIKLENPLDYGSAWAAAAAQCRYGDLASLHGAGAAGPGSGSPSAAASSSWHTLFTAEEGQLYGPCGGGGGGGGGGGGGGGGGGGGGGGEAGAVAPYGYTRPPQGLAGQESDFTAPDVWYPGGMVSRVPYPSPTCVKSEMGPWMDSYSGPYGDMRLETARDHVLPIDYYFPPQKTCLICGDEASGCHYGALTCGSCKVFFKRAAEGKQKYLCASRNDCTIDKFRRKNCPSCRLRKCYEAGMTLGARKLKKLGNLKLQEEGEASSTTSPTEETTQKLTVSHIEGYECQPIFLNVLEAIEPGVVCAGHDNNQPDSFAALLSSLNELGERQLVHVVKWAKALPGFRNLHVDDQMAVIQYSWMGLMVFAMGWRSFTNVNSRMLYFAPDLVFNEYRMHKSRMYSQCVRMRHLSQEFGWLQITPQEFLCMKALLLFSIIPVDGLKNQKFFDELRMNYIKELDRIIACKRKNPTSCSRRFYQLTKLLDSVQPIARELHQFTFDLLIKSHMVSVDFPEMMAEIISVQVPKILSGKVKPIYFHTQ
From the text: This test constitutes a method of identifying pure or partial agonists which mimic the effects of natural hormones, such as DHT (dihydrotestosterone) in the present case or, on the other hand, antagonists which inhibit them.
For this transactivation test, plasmids encoding a reporter gene and the human androgen receptor (hAR) are introduced together by transfection into the HeLa cell line. The reporter plasmid contains luciferase cDNA under the control of the AREs contained in the promoter sequences of the probasin gene (3xpbAREminicoll-luciferase/pGL3-puro). The expression of the reporter gene constitutes an indication of the transcriptional activity of hAR. It also encodes a protein allowing the cells expressing it to resist a treatment with puromycin. The plasmid encoding hAR contains the cDNA of hAR under the control of the Cytomegalovirus (CMV) promoter. It also encodes a protein allowing the cells expressing it to resist a treatment with neomycin. The treatment of cells with increasing amounts of potentially agonistic compounds will increase the expression of the reporter gene. To detect antagonists, on the other hand, increasing doses of test compounds are tested in the presence of […] of DHT. The expression of the reporter gene, which is constant for each dose of DHT, decreases when the concentration of the test compounds increases.
The functional response test is conducted on 96-well plates. The HALP2 cells are seeded (20,000 cells per well) in culture medium (DMEM with phenol red, 1% de Pen-Strep, 1% of non-essential amino acids, 10% of fetal bovine serum, 400 μg/mL Geneticin and 0.150 puromycin) on day 1. After 24 hours incubating at 37° C., 5% CO2, high humidity (day 2) the medium is removed and refreshed with test medium (DMEM without phenol red supplemented, 1% de Pen-Strep, 1% of non-essential amino acids and 5% of desteroidised foetal bovine serum). After another 24 hours incubating at 37° C., 5% CO2, high humidity (day 3), the medium is renewed once more before the phase of stimulation.
The cells are placed in contact with the compounds for 24 hours at 37° C., 5% CO2, high humidity. On day 4 the medium is then removed and the luciferase activity reading reagent is placed in contact with the cells in accordance with the manufacturer's instructions (SteadyLite, Perkin-Elmer). The luminescence produced is detected on an Envision reader (Perkin-Elmer). […]
The determination of the relative agonism/antagonism of a compound is obtained by comparing the maximal activation obtained with said compound and the activation obtained with DHT alone (100%).

[3] = test system: castrated immature young rats; assay: Adapted model of Hershberger's test; format: in vivo, Sprague Dawley rats; details: Rattus norvegicus, po, 96 h, ORX control = 0%, SHAM control = 100%, per os daily for 4 days, dose tested 10 mg/kg
Method: The selective modulating activity of the androgen receptor is tested in a model of castrated immature young rats. This model, which is widely recognised for evaluating the anabolic effects of androgen compounds on the muscles and on the prostate, has been described by Hershberger et al. 1953 Proc. Soc. Expt. Biol. Med. 83:175.
The method is based on the measurement of the well-known effects of androgens on the growth of the muscles and the accessory male sex organs in animals, and also in men. The consequences of castration appear in the form of a rapid involution and atrophy of the prostate and the seminal vesicles and of the anus-lifting muscle (levator ani). This effect may be completely compensated by an exogeneous administration of androgen, in particular of testosterone. The model is thus used to determine the capacity of the tested molecules to maintain the weight of the accessory sex and muscle organs in immature castrated rats, and therefore their androgenic efficacy.
Immature young Sprague Dawley rats (4 to 5 weeks old) weighing approximately 140-160 g (Charles River, Les Oncins, FRANCE) are distributed randomly in various groups and are kept in an environment at 22±2° C. with an alternating day/night cycle of 12 hours and ad libitum access to food and drink.
On day 0 (seven days before commencement of the first treatment) the rats are weighed individually then anaesthetised with an intraperitoneal dose of Ketamine/xylazine (85/15 mg/kg, approximately 2 ml/kg). Each animal is then placed on a sterile field and the abdomen and the scrotum are disinfected with Betadine and 70% alcohol. In the case of the orchidectomised control animals (ORX), the testicles are removed via an incision in the middle of the scrotum. A sterile suture is then made to ligature the supra-testicular portion of the tissue prior to surgical section of each testicle. The groups of animals to be treated by the tested compounds are operated on in an identical manner. In the case of the intact control animals (SHAM), the testicles are similarly extracted and reintroduced delicately to their original location. The site of surgical intervention is then sutured using sterile suture thread, and the site is disinfected again by application of Betadine. Each animal is then kept under a sterile pad until it awoke, before being returned to its cage. The animals are kept in an environment at 22±2° C. with an alternating day/night cycle of 12 hours and ad libitum access to food and drink. The animals are treated with the molecules to be tested from post-surgery day 7 and until day 10 preceding sacrifice (day 11).
The rats are split into groups and treated daily from day 7 to day 10 under the conditions defined below: • 1. SHAM control group: Vehicle (PEG400/DMSO/water; 79/1/20) administered per os. • 2. ORX control group: Vehicle (PEG400/DMSO/water; 79/1/20) administered per os. • 3. Treated ORX group: The tested compounds are administered individually per os in suspension in the vehicle described above, in a dose of 10 mg/kg.
After treatment for 4 successive days, the animals are decapitated using a guillotine. The levator ani and the ventral prostate are removed and weighed individually. For comparing inter-experimental data, the weight of each organ is standardised and expressed in milligrammes per 100 g of the weight of the animal (W). For each organ, the average of the standardised weights of the ORX control group is fixed by definition at 0% and the average of the standardised weights of the SHAM control group is fixed by definition at 100%. The efficacy of each product is expressed as a percentage and calculated using the following formula: (Wtreated−WORX)/(WSHAM−WORX)×100
A subsequent ANOVA test is used for statistical analysis to identify the differences between groups.

[4] = male, Sprague-Dawley, rat, plasma, po, 10 mg/kg, read-out: Bioavailability
[5] = maximal activation by the compound compared with DHT alone (100%), HALP2 cells
[6] = agonism: concentration inducing 50% of the maximum agonistic effect of the tested compound, HALP2 cells, 24 hours, read-out: EC50

## CCC(O)C1(c2ccccc2)C(=O)N(c2ccc(C#N)c(C(F)(F)F)c2)C(=O)N1C (single isomer, unassigned) [Example 3, 4-[2,5-Dioxo-4-(1-hydroxypropyl)-3-methyl-4-phenylimidazolidin-1-yl]-2-trifluoromethylbenzonitrile]
[1]; [4]
  bioavailability: 50 to 90%

## CC(O)C1(c2ccccc2)C(=O)N(c2ccc(C#N)c(C(F)(F)F)c2)C(=O)N1C (single isomer, unassigned) [Example 4, 4-[2,5-Dioxo-4-(1-hydroxyethyl)-3-methyl-4-phenylimidazolidin-1-yl]-2-trifluoromethylbenzonitrile]
[2]; [5]
  Emax: 0 to 5%
[1]
  bioavailability: # (0-49%)

## CC(O)C1(c2ccccc2)C(=O)N(c2ccc(C#N)c(C(F)(F)F)c2)C(=O)N1C (single isomer, unassigned) [Example 5, 4-[2,5-Dioxo-4-(1-hydroxyethyl)-3-methyl-4-phenylimidazolidin-1-yl]-2-trifluoromethylbenzonitrile]
[2]; [5]
  % effect relative to DHT (100%): § (0-5%)
[1]
  bioavailability: ### (>90%:)

## CN1C(=O)N(c2ccc(C#N)c(C(F)(F)F)c2)C(=O)C1(CO)c1ccccc1 (stereo not drawn) [Example 1, 4-[2,5-Dioxo-4-(hydroxymethyl)-3-methyl-4-phenylimidazolidin-1-yl]-2-trifluoromethylbenzonitrile]
[2]; [5]
  Emax: 21 to 40%
[2]; [6]
  EC50: 0.01 to 10 nM
[1]; [4]
  bioavailability: 50 to 90%

## C#CCN1C(=O)N(c2ccc(C#N)c(C(F)(F)F)c2)C(=O)C1(CO)c1ccc(F)cc1 (stereo not drawn) [Example 8, 4-[2,5-Dioxo-4-(4-fluorophenyl)-4-hydroxymethyl-3-(2-propynyl)imidazolidin-1-yl]-2-trifluoromethylbenzonitrile]
[2]
  EC50: 101 to 500 nM
  Emax: 6 to 20%
[1]; [4]
  bioavailability: > 90%

## Cc1cccc(C2(CO)C(=O)N(c3ccc(C#N)c(C(F)(F)F)c3)C(=O)N2C)c1 (stereo not drawn) [Example 21, 4-[2,5-Dioxo-4-hydroxymethyl-3-methyl-4-(3-methylphenyl)imidazolidin-1-yl)-2-trifluoromethylbenzonitrile]
[3]; levator ani weight, read-out: Anabolic activity %
  response vs control in vivo at 10 mg/kg: 0.5 to 25%
[3]; ventral prostate weight, read-out: Androgenic activity % (Prostate)
  response vs control in vivo at 10 mg/kg: 0%
[2]; [5]
  Emax: 6 to 20%
[2]; [6]
  EC50: 501 to 1000 nM
